Assays:
C57 BL/6 mice = test: Conditioned place preference (psychological dependence) following repeated administration of morphinans or PCP; assay type: in vivo; conditions: 20 or 40 mg/kg i.p. (PCP 2.5 or 5 mg/kg); vs saline
Experimental: On day 14, the guillotine doors were raised. […] Data were analyzed between 0900 and 1700 hr.

MPTP-treated mice [1] = test: Hypokinesia (reduction in locomotor activity) induced by MPTP; assay type: in vivo; conditions: 12 or 24 mg/kg i.p. 30 min before MPTP (20 mg/kg/day x 7), last three days
LPS-treated mice [2] = test: Nigral TH-IR in LPS-treated mice; assay type: in vivo; conditions: 24 mg/kg i.p.
Description: FIGS. 8A-8B. […] Magnification=40×.
Control animals received striatal injection with PBS.

MA-treated mice [3] = test: Methamphetamine (MA)-induced hyperthermia; assay type: in vivo; conditions: 24 mg/kg; MA 7.5 mg/kg i.p. x 4 at 2-h intervals
Experimental: Rectal temperature was recorded at 40 min after each MA treatment. […] Mice were sacrificed at 3 days after final MA injection.
FIGS. 10A-10B show effect of morphinans on the methamphetamine (MA)-induced hyperthermia. Mice received i.p. injections of MA (four injections of 7.5 mg/kg each) at 2-h intervals under the ambient temperature of 22.0±0.5° C. Temperatures were recorded at 40 min after each MA treatment (Arrow=MA injection).

MPTP-treated mice [4] = test: MPTP-induced loss of nigral TH-IR with CB1 agonist/antagonist and HM; assay type: in vivo; conditions: given alone: AM-251 0.3, ACEA 2, HM 20 mg/kg i.p.; MPTP 20 mg/kg i.p./day x 7
Experimental: CB1 agonist or antagonist was administered 45 min before every MPTP, while HM was injected 30 min before every MPTP (20 mg/kg, i.p./day×7). Compounds were administered for 7 days post-final MPTP.

LPS-treated mice [5] = test: LPS-induced loss of nigral TH-IR with CB1 agonist/antagonist and HM; assay type: in vivo; conditions: given alone
Experimental: Mortality was observed by 2 weeks after bilateral LPS intrastriatal injection (one side: 2 μg×2).

MPTP-treated mice [6] = test: MPTP model, HM versus L-dopa/carbidopa: nigral TH-IR; assay type: in vivo; conditions: HM 24 mg/kg i.p., L-dopa 200 mg/kg p.o., carbidopa 20 mg/kg p.o.
Experimental: FIGS. 21A-21G show effects of carbidopa, L-dopa, carbidopa+L-dopa and HM on the nigral tyrosine hydroxylase-like immunoreactivity (TH-IR) of the mice treated with MPTP. […] Magnification=40×.
A prescription drug for treating Parkinsonian patients is L-dopa or carbidopa plus L-dopa. Thus, the neuroprotective effects of HM was compared with L-dopa, carbidopa, or carbidopa plus L-dopa. […] Locomotor activity was examined for 60 min after final treatment of MPTP. Mice were sacrificed at 24 h after final MPTP administration. HM (24 mg/kg, i.p.), L-dopa (200 mg/kg, p.o.) with or without carbidopa (20 mg/kg, p.o.) was administered for 2 weeks before first MPTP challenge.

LPS-treated mice [7] = test: LPS model, HM versus L-dopa/carbidopa: mortality; assay type: in vivo; conditions: intrastriatal LPS 2 μg x 4/head; 2 weeks
Experimental: Mortality was observed by 2 weeks after LPS injection. *P<0.01 vs. Saline+LPS (x^2-test).
The neuroprotective effect of HM was compared with L-dopa, carbidopa, or carbidopa plus L-dopa in response to dopaminergic damage induced by LPS. Intrastriatal injection of LPS (2 μg×4/head) produced high mortality (ten animals died out of twelve animals in the 2 weeks after LPS administration).

LPS-treated mice [8] = test: LPS model, HM versus L-dopa/carbidopa: locomotor activity; assay type: in vivo; conditions: 3 weeks after LPS
Experimental: Locomotor activity was examined for 60 min at 3 weeks after LPS treatment. LPS-induced significant reduction (P<0.01 vs. saline treatment) in locomotor activity was attenuated by L-dopa (P<0.05), carbidopa+L-dopa (P<0.05) or HM (P<0.01) (FIGS. 24 and 25).

LPS-treated mice [9] = test: LPS model, HM versus L-dopa/carbidopa: microglia F4/80-like immunoreactivity; assay type: in vivo; conditions: substantia nigra
MA-treated mice [10] = test: MA model, HM versus L-dopa/carbidopa: locomotor activity; assay type: in vivo; conditions: 3 days after MA
MA-treated mice [11] = test: MA model, HM versus L-dopa/carbidopa: nigral TH-IR; conditions: mouse, in vivo
Description: FIGS. 33A-33G show effects of carbidopa, L-dopa, carbidopa plus L-dopa, and HM on the nigral tyrosine hydroxylase-like immunoreactivity (TH-IR) of the mice treated with MA. […] Magnification=40×.

cocaine-treated mice [12] = test: Cocaine-induced conditioned place preference with CB1 modulation
Experimental: The control mice received an i.p. injection of saline just before entering the white or black compartment. Cocaine or MA dissolved in saline was administered immediately before the mice were placed in the white compartment. To test the effect of cocaine alone or MA alone or in combination with exemplified morphinans (DM, HM, AM, CM or DF), each morphinan was administered 2 hr before cocaine or saline injection.
On day 1, the mice were pre-exposed to the test apparatus for 5 min. The guillotine doors were raised and the mice were allowed to move freely between the two compartments. On day 2, the time each mouse spent in each compartment was recorded for 15 min. On days 3, 5, 7, 9, 11, and 13, the mice were injected with cocaine before being confined to the white compartment, the non-preferred side, for 20 min. On days 4, 6, 8, 10, and 12, the mice were injected with saline before being confined to the black compartment, the preferred side, for 20 min. On day 14, the guillotine doors were raised. The mice were initially placed in the tunnel and the time spent by the mice in the two compartments was recorded for 15 min. The scores were calculated from the differences in the time spent in the white compartment in the testing and pre-testing phases.

cocaine-treated mice [13] = test: Cocaine-induced behavioural sensitization with CB1 modulation
MA-treated mice [14] = test: MA-induced behavioural sensitization
Experimental: Morphinans (20 mg/kg, i.p.) were administered last 3 days of wash-out period.

[15] = tested on: NMDA receptor associated PCP sites; conditions: cited from earlier work
MA-treated mice [16] = test: Nigral TH-IR in MA-treated mice; conditions: 24 mg/kg i.p.
MA-treated mice [17] = test: MA-induced loss of nigral TH-IR with CB1 agonist/antagonist and HM; conditions: given alone
Experimental: Compounds were administered 3 days before and after MA injection.

MPTP-treated mice [18] = test: Nigral tyrosine hydroxylase-like immunoreactivity in MPTP-treated mice; conditions: 24 mg/kg i.p.
Experimental: Each morphinan was administered 30 min prior to every injection of MPTP for last three days (from day 4th to day 7th). Animals were sacrificed 24 h after the last MPTP treatment.

cocaine-treated mice [19] = test: Cocaine-induced Fos-related antigen-immunoreactivity (FRA-IR) in the striatum; conditions: cocaine 5 mg/kg; morphinan 20 mg/kg i.p.

Oc1ccc2c(c1)[C@@]13CCCC[C@H]1[C@@H](C2)NCC3 [HM, 3-hydroxymorphinan]
conditioned place preference (CPP) (C57 BL/6 mice): almost no CPP effects
effect on MPTP-induced reduction in locomotor activity (MPTP-treated mice [1]): significantly prevented MPTP-induced reduction in locomotor activity
effect on LPS-induced reduction in nigral TH-positive cells (LPS-treated mice [2]): significantly attenuated the reduction in TH-positive cells
effect on MA-induced hyperthermia (rectal temperature) (MA-treated mice [3]): most efficacious
effect on MPTP-induced reduction of nigral TH-IR (MPTP-treated mice [4]): Attenuates MPTP-induced Reduced Tyrosine Hydroxylase-like Immunoreactivity
effect on LPS-induced reduction in nigral TH-IR (LPS-treated mice [5]): Attenuates LPS-Induced Reduced Tyrosine Hydroxylase-like Immunoreactivity
effect on MPTP-induced nigral loss in TH-IR (MPTP-treated mice [6]): significantly attenuated
effect on mortality induced by LPS (LPS-treated mice [7]): most pronounced
effect on LPS-induced reduction in locomotor activity (LPS-treated mice [8]): attenuated
effect on LPS-induced increase in F4/80-like immunoreactivity (microglia) (LPS-treated mice [9]): most effective in attenuating LPS-induced increase in F4/80-like immunoreactivity
effect on MA-induced reduction in locomotor activity (MA-treated mice [10]): more efficacious than that of L-dopa or carbidopa+L-dopa
effect on MA-induced nigral loss in TH-IR (MA-treated mice [11]): more pronounced than that of carbidopa+L-dopa
CPP response of the compound itself (cocaine-treated mice [12]; AM 251 0.3, HM 20, ACEA 2 mg/kg, no cocaine): Neither saline-, AM 251 (0.3 mg/kg)-treated nor HM (20 mg/kg)-treated animals showed any CPP response
effect on cocaine-induced CPP (cocaine-treated mice [12]; cocaine 10 mg/kg): significantly reduced
behavioural effects of the compound itself (cocaine-treated mice [13]; AM 251 0.3, ACEA 2, HM 20 mg/kg, no cocaine): Neither saline-, AM 251 (0.3 mg/kg)-, ACEA (2 mg/kg)-treated nor HM (20 mg/kg)-treated animals showed any specific behavioural effects
effect on cocaine-induced behavioural sensitization (cocaine-treated mice [13]; cocaine 10 mg/kg/day i.p. x 7, challenge one month later): significantly reduced
behavioural effects of the compound itself (MA-treated mice [14]; AM 251 0.3, ACEA 2, HM 20 mg/kg, no MA (Ex. 3.14)): Neither saline-, AM 251 (0.3 mg/kg)-, ACEA (2 mg/kg)-treated nor HM (20 mg/kg)-treated animals showed any behavioural effects
effect on MA-induced behavioural sensitization (CB1 modulation study) (MA-treated mice [14]; MA 1 mg/kg i.p./day x 7, challenge one week later (Ex. 3.14)): significantly reduced
affinity for NMDA receptor associated PCP sites [15]: very low affinities
effect on MA-induced decrease in nigral TH-positive cells (MA-treated mice [16]): significantly attenuated the decrease in TH-positive cells
effect on MA-induced reduction in nigral TH-IR (MA-treated mice [17]): Prevents Methamphetamine (MA)-induced Reduction in Tyrosine Hydroxylase-like Immunoreactivity
effect on MPTP-induced decrease in nigral TH-positive cells (MPTP-treated mice [18]): significantly attenuated the decrease in TH-positive cells
effect on cocaine-induced FRA-IR in the striatum (cocaine-treated mice [19]): apparently attenuated

Reference: US7691874B2, “Neuroprotective properties of dextrorotatory morphinans” (priority 2004, dated 2010)
